Common to all, as to format: cell-based, human
The subject of assay [1] is cancer cells derived from the tissue sample of a patient with osteosarcoma. Put plainly: Drug response score assay on tissue sample, Example 10. Also on record: key to Drug response score, conc. 1 / Drug response score, conc. 2 / Drug response score, conc. 3 / Drug response score, conc. 4: normalized drug response metric per Gupta et al. 2020. Conditions: tissue sample; for Drug response score, conc. 1: conc. 1 per Table 31: Etop 1, DTIC 1.5, Ifos 0.125, Doce 0.02, Irinotecan 5 μg/ml; for Drug response score, conc. 2: conc. 2 per Table 31: Etop 4, DTIC 3, Ifos 0.25, Doce 0.2, Irinotecan 10 μg/ml; for Drug response score, conc. 3: conc. 3 per Table 31: Etop 20, DTIC 6, Ifos 5, Doce 2, Irinotecan 25 μg/ml; for Drug response score, conc. 4: conc. 4 per Table 31: Etop 100, DTIC 12, Ifos 10, Doce 10, Irinotecan 50 μg/ml. As to the method:
Where a tissue sample was provided by each subject, cancer stem cells (CSCs, CD133^+), were isolated from said sample. Tumour marker cells were further isolated from each tissue sample. The remaining cells were designated tumour marker^+ cells.
First, disaggregation of the tissue samples was carried out. Disaggregation was dependent on the size of the tissue sample and the method of retrieval: • EBUS (Endobronchial Ultrasound Scan and Biopsy)—very small fragments of tissue in solution-spun at 1200 rpm for 5 minutes to collect tissue pellet • Bronchoscopy-larger fragments with larger amount of blood vessels • Broncho-lavage-similar to EBUS, spun at 1200 rpm for 5 minutes to collet tissue pellet
Once a pellet of tissue obtained, DMEM added to the tissue pellet and the material forced through a […] Smart strainer. Once a cell suspension was achieved, this was spun at 1200 rpm for 5 minutes and the supernatant removed. The cells were then resuspended to a volume of 60 μl.
20 μl of FcR block and 20 μl of CD133 microbeads were added to the resuspended cells, followed by incubation for 15 minutes at 4° C. The cells were then processed using an AutoMACS machine. This separates the […] into CD133^+ and CD133^− cells in 2 separate falcons. The falcon tubes are then centrifuged at 1200 rpm for 5 minutes.
The supernatant was removed from the CD133+falcon tube, and the cells resuspended in DMEM with 2 μl Cell Tox, 2 μl MT and 2 μl MT. 20 μl of the resuspended […] was then plated in each well which will contain an immunotherapy treatment.
The supernatant was removed from the CD133^− falcon tube, and the CD133^− cells contacted with 40 μl of a tumour separation microbeads cocktail containing microbeads bound to anti-CD31, anti-CD45, anti-Glycophorin-A (Gly-A) and an anti-fibroblast antibody.
This cocktail is used to separate out tumour marker cells using MACS, by separating out CD31^+, CD45^+ and Gly-A^+ cells. In addition, anti-fibroblast antibody-labelled beads are also used. The cocktail is added to the CD133^− falcon tube, followed by incubation for 15 minutes at 4° C. MACS is carried out using an AutoMACS machine. This cells which are not bound by the CD31, CD45, Gly-A and anti-fibroblast antibody beads are the tumour marker^+ cells.
(§1) The different cell types were each divided equally into populations, depending on the number of drugs/concentrations to be tested and plated on a cell-culture plate pre-coated with a scaffold of polycaprolactone (PCL) electrospun fibres and incubated at 37° C., 5% CO2, for 5 to (typically 10) minutes to facilitate cell attachment. After attachment, an initial imaging step was carried out using the RealTime-Glo™ MT assay from Promega (Catalogue No. G9711)) and the CellTox™ Green Cytotoxicity Assay (Promega, Catalogue No. G8741), carried out according to manufacturer's instructions. Following this initial imagining, the immunotherapeutic and/or chemotherapeutic agents were added to the cell populations as indicated below. After 10 minutes, the imagining step was repeated. The cell populations were then incubated at 37° C., 5% CO2 for 48 hours. The imaging step was then repeated. The cell populations were then re-dosed with the same immunotherapeutic and/or chemotherapeutic agents as indicated below, and incubated at 37° C., 5% CO2 for a further 48 hours. After this second 48 hour incubation, the imagining step was repeated for a final time.
At the end of this culture period, dose response scores were calculated using a normalized drug response metric as described in Gupta et al. (Communications Biology volume 3, Article number: 42 (2020), https://doi.org/10.1038/s42003-020-0765-z). The start readout for a given immunotherapeutic or chemotherapeutic agent at a given concentration was the to readout for said immunotherapeutic or chemotherapeutic agent at a specified concentration. […]

The test system of assay [2] is Circulating Tumour Cells (CTCs) from a patient with sex cord stromal tumour, ovarian tumour. Put plainly: Drug response score assay on CTCs from blood, Example 4. Conditions: for Drug response score, conc. 1: conc. 1: Cyclo 2.5 μg/ml, Vinc 10 ng/ml, Etop 1 μg/ml, Bini 100 ng/ml, Doxo 10 ng/ml; for Drug response score, conc. 1 / Drug response score, conc. 2 / Drug response score, conc. 3 / Drug response score, conc. 4: CTCs, t96h; for Drug response score, conc. 2: conc. 2: Cyclo 10 μg/ml, Vinc 20 ng/ml, Etop 4 μg/ml, Bini 200 ng/ml, Doxo 30 ng/ml; for Drug response score, conc. 3: conc. 3: Cyclo 40 μg/ml, Vinc 40 ng/ml, Etop 20 μg/ml, Bini 400 ng/ml, Doxo 90 ng/ml; for Drug response score, conc. 4: conc. 4: Cyclo 160 μg/ml, Vinc 80 ng/ml, Etop 100 μg/ml, Bini 800 ng/ml, Doxo 270 ng/ml; for effectiveness on Circulating Tumour Cells (CTCs) under laboratory conditions / Drug sensitivity as calculated by the assay (interpretation of Drug Response Scores): sex cord stromal / ovarian tumour CTCs; for Drug sensitivity as calculated by the assay (interpretation of Drug Response Scores): Table 14. Also on record: key to Drug response score, conc. 1 / Drug response score, conc. 2 / Drug response score, conc. 3 / Drug response score, conc. 4: normalized drug response metric (Gupta et al. 2020). How it is done: (§2) CD45^+ cells and circulating tumour cells (CTCs) were isolated from a blood sample provided by each subject.
(§3) CD45 separation was performed by adding human CD45 microbeads (50 μl/ml blood), incubating for 15 minutes at 4° C. and then processing using an AutoMACS machine. This separates the blood sample into CD45^+ and CD45^−cells in 2 separate falcons. The falcon tubes are then centrifuged at 1200 rpm for 5 minutes.
(§4) The supernatant was removed from the CD45^−falcon tube, and the CD45^−cells contacted with 100 μl of FcR block and 100 μl of CD326 (EpCAM) MicroBeads, followed by incubation at […] 4° C. for 30 minutes. The CD45^−cells were then processed using an AutoMACS machine to separate the EpCAM positive and negative cells into 2 separate falcon tubes. The EpCAM-cells were discarded. The supernatant was removed from the EpCAM^+ cells, and the cells resuspended in DMEM with 2 μl Cell Tox, 2 μl MT and 2 μl MT. 20 μl of the resuspended pellet was then added to all sample wells excluding a blank. After all wells are added to, a cell count was conducted on the […] to determine the number of circulating tumour cells (CTCs).
as §1
(§5) At the end of this culture period, dose response scores were calculated using a normalized drug response metric as described in Gupta et al. (Communications Biology volume 3, Article number: 42 (2020), https://doi.org/10.1038/s42003-020-0765-z). The start readout for a given immunotherapeutic or chemotherapeutic agent at a given concentration was the to readout for said immunotherapeutic or chemotherapeutic agent at a specified concentration. The end readout for a given immunotherapeutic or chemotherapeutic agent at a given concentration was the final timepoint reading (t96h) for said immunotherapeutic or chemotherapeutic agent at a specified concentration.
(§6) The positive control start readout for a given drug/concentration was the to readout for the corresponding drug at a specified concentration. The positive control end readout for the corresponding drug at a specified concentration was the final timepoint reading (t96h) for the corresponding blank well.
(§7) The negative control start and end readouts for a given immunotherapeutic or chemotherapeutic agent at a given concentration were the to and final timepoint reading (t96h) respectively for blank cell or blank immuno cell well respectively.
(§8) The sensitivity or resistance of a subject's cancer to a given immunotherapeutic or chemotherapeutic agent was determined based on the calculated drug response score as shown in Table 2.
Blood samples from a patient with sex cord stromal tumour, ovarian tumour (epitheliod neoplasm, stage 3 recurrence after surgery (resection) and previous chemotherapy) were received on 19 Jul. 2021 and tested using a 5 drug panel. […]

Assay [3] deals with Circulating Tumour Cells (CTCs) from a patient with colon cancer (sigmoid colon cancer). The experiment in a line: Drug response score assay on CTCs from blood, Example 8. As to the method: as §2, §3, §4
as §1, with “After” for “The different cell types were each divided equally into populations, depending on the number of drugs/concentrations to be tested and plated on a cell-culture plate pre-coated with a scaffold of polycaprolactone (PCL) electrospun fibres and incubated at 37° C., 5% CO2, for 5 to (typically 10) minutes to facilitate cell attachment. After”
as §5, §6, §7, §8
Blood samples from a patient with colon cancer (sigmoid colon cancer) were received on 8 Mar. 2022 and tested using a 9 drug panel.
Chemotherapeutic agents were tested as in Table 24.

The structures appear in SMILES notation.

Here are results for four compounds from US20250290915A1, “METHOD FOR PREDICTING RESPONSIVENESS TO THERAPY” (CANCERTAIN LIMITED, priority 2022, published 2025).

For `CN(C)/N=N/c1[nH]cnc1C(N)=O` [DTIC], in assay [1], the “Drug response score, conc. 1” value is recorded as −0.7928; the “Drug response score, conc. 2” value amounted to 0.4035; the “Drug response score, conc. 3” value is −0.0520; the “Drug response score, conc. 4” value stood at 0.1714.
In the case of `O=P1(N(CCCl)CCCl)NCCCO1` (centres unmarked) [Cyclophosphamide], the “Drug response score, conc. 1” value is 0.97 in assay [2] and −0.3176 in assay [3] (conc. 1 of each drug as in Table 24, CTCs, t96h). Further, the “Drug response score, conc. 2” value in assay [2] came to 0.58; in assay [3] (conc. 2 of each drug as in Table 24, CTCs, t96h) it was 0.9581. Also, the “Drug response score, conc. 3” value in assay [2] is given as 0.41; in assay [3] (conc. 3 of each drug as in Table 24, CTCs, t96h), 0.6810. For the same compound, the “Drug response score, conc. 4” value in assay [2] stood at 0.94; in assay [3] (conc. 4 of each drug as in Table 24, CTCs, t96h) it was 2.5058. In addition, the “effectiveness on Circulating Tumour Cells (CTCs) under laboratory conditions” value in assay [2] is “show effectiveness”. For the same compound, the “Drug sensitivity as calculated by the assay (interpretation of Drug Response Scores)” value in assay [2] is given as “Sensitive (S++)”; in assay [3] (sigmoid colon cancer CTCs, Table 26), “Sensitive (S+)”. Further, the “effectiveness on Circulating Tumour Cells under laboratory conditions” value in assay [3] (sigmoid colon cancer CTCs) was “S+”.
On to `CCc1c2c(nc3ccc(OC(=O)N4CCC(N5CCCCC5)CC4)cc13)-c1cc3c(c(=O)n1C2)COC(=O)[C@]3(O)CC` [Irina], for which, in assay [1], the “Drug response score, conc. 1” value is listed as −0.0303; the “Drug response score, conc. 2” value was −0.1454; the “Drug response score, conc. 3” value is 0.2672; the “Drug response score, conc. 4” value is recorded as −0.0433.
In the case of `CC[C@]1(O)C[C@H]2CN(CCc3c([nH]c4ccccc34)[C@@](C(=O)OC)(c3cc4c(cc3OC)N(C=O)[C@H]3[C@@](O)(C(=O)OC)[C@H](OC(C)=O)[C@]5(CC)C=CCN6CC[C@]43[C@@H]65)C2)C1` [Vincristine], in assay [2], the “Drug response score, conc. 1” value stood at 3.35; the “Drug response score, conc. 2” value was 1.24; the “Drug response score, conc. 3” value stood at 1.83; the “Drug response score, conc. 4” value came out at 1.29. Besides, in assay [2], the “effectiveness on Circulating Tumour Cells (CTCs) under laboratory conditions” value is given as “not effective” and the “Drug sensitivity as calculated by the assay (interpretation of Drug Response Scores)” value is “Resistant”.
